Marks after values point to notes of the source that are not given here.
Legend:
[1] = system: tracheal phenol red excretion amount in mice; test: Phlegm-reducing effect (tracheal phenol red excretion); type: in vivo, Kunming mice; details: x ± s, n=16
From the text: Test animals: Kunming mice (body weight 18-22 g, half male and half female), purchased from Beijing Vital River Laboratory Animal Technology Co., Ltd. Test reagent: Ammonium chloride (Guangzhou Chemical Reagent Factory). The devices were the same as in Test Example 1. According to the method of LI Yikui's phlegm-reducing test, the mice were fed normally for 3 days, and then randomly grouped into blank control group, compound of the present invention group, and ammonium chloride-positive control group. […] The phenol red excretion amount was calculated from the phenol red standard curve, and the significance of the difference between the groups was compared. Statistical method: data analysis of the experimental data was carried out with SPSS 10.0 statistical software, and t-test was used for comparison between groups.

[2] = system: citric acid-induced cough in guinea pigs; test: Citric acid-induced cough test; type: in vivo; details: x ± s
From the text: Test animals: Guinea pigs (body weight 180-220 g, half male and half female), purchased from Beijing Vital River Laboratory Animal Technology Co., Ltd.
(§1) Test reagent: Codeine phosphate (Europharm Laboratoires Co., Ltd.).
The devices are the same as in Test Example 1.
The guinea pigs were adaptively fed for 1 day followed by preliminary screening.
The guinea pigs were placed one by one in an inverted 5 L sealed glass bell jar, and treated by a constant pressure spray stimulation (17.5% citric acid solution) for one minute. The number of coughs within 5 minutes from the spray was recorded, and the guinea pigs which coughed more than 10 times were chosen as qualified test animals. The qualified guinea pigs were randomly grouped into blank control group, compound of the present invention group, and codeine phosphate-positive control group. The above groups were intragastrically administrated with the drugs according to body weight, and the blank control group was administrated with equal volume of distilled water. The intragastrical administration was carried out for five consecutive days. The guinea pigs were placed in an inverted 5 L sealed glass bell jar for one hour after the last administration, and treated by the nebulizer for 30 seconds. The latentperiod of the cough of the guinea pigs (the time from starting spraying of 17.5% citric acid to coughing starting) and the number of coughs within 5 minutes were observed.
(§2) Statistical method: data analysis of the experimental data was carried out with SPSS 10.0 statistical software, and t-test was used for comparison between groups.

[3] = system: aqueous ammonia-induced cough in mice; test: Aqueous ammonia-induced cough test; type: in vivo, Kunming mice; details: x ± s, n=16
From the text: Test animals: Kunming mice (body weight 18-22 g, half male and half female), purchased from Beijing Vital River Laboratory Animal Technology Co., Ltd., with Certificate No.: SCXK-(Beijing)2012-001.
as §1
Device: YC-Y800 Medical ultrasonic nebulizer (Beijing Yadu Technology Co., Ltd., with Beijing Pharmaceutical Supervision Certificate No.: Beijing 99 No. 223145); UV-2450 UV-visible spectrophotometer (Shimadzu Co., Japan); UX420S Animal balance (Shimadzu Co., Japan); and milli electronic balance (Sartorius Co., Germany).
The mice were adaptively fed for 3 days followed by screening. The ultrasonic nebulizer was preheated, and added with 40 ml of fresh aqueous ammonia solution (12.5%). The mice were placed in 1000 ml beaker. The beaker's mouth was sealed with a plastic wrap with two holes opened (one for inserting the ultrasonic atomizer outlet tube, and the other for ventilation). Ammonia was continuously introduced by the ultrasonic atomizer at its minimal power for 60 seconds, followed by stopping the ultrasonic atomizer immediately. The plastic wrap was quickly opened to allow the ammonia to diffuse naturally. Mice which coughed for less than 10 times or more than 80 times within three minutes were excluded. The qualified mice were randomly grouped into blank control group, compound of the present invention group, and codeine phosphate-positive control group. The above groups were intragastrically administrated with the drugs according to body weight, and the blank control group was administrated with equal volume of distilled water. The administration was carried out once a day for five consecutive days. The mice were placed one by one in an inverted 5 L sealed glass bell jar for one hour after the last administration, and treated by a constant pressure ammonia spray stimulation for 15 seconds (10 mL of ammonia spray/time for one mouse, and changed each time). After the stimulation stopped, the mice were taken out to observe the latentperiod of the cough of the mice (the time from spraying starting to coughing starting) and the number of coughs within 2 minutes (cough was identified by severely contracting the abdominal muscles and opening the mouth, with a slight cough sound sometimes).
as §2

[4] = positive control dose 15 mL·kg^-1 intragastric once a day for five days
[5] = 20 mg·kg^-1 intragastric for five days, phenol red i.p. 30 min after last administration
[6] = 20 mg·kg^-1 intragastric for five days, 17.5% citric acid spray 1 h after last administration
[7] = 20 mg·kg^-1 intragastric once a day for five days, ammonia spray 1 h after last administration

SMILES	Tracheal phenol red excretion amount ([1]; positive control dose 1000 mg·kg^-1 intragastric for five days) [mg/L]	Latentperiod ([2]; positive control dose 15 mL·kg^-1 intragastric for five days, n=18) [s]	Latentperiod [3, 4] [s]	Number of coughs [3, 4] [times/2 min]	Tracheal phenol red excretion amount [1, 5]	Latentperiod [2, 6] [s]	Latentperiod [3, 7] [s]	Number of coughs [3, 7] [times/2 min]
Cl.N [Ammonium chloride, reference compound]	1.068 ± 0.224	–	–	–	–	–	–	–
COc1ccc2c3c1O[C@H]1[C@@H](O)C=C[C@H]4[C@@H](C2)N(C)CC[C@@]341 [Codeine phosphate, reference compound]	–	107 ± 41	48.3 ± 5.9	14.2 ± 6.5	–	–	–	–
O=C(O)C[C@@H](NC(=O)Cc1cn([C@@H]2O[C@H](CO)[C@@H](O)[C@H](O)[C@H]2O)c2ccccc12)C(=O)O [Compound 1, (2-(1-((2R,3R,4S,5S,6R)-3,4,5-trihydroxy-6-(hydroxymethyl)tetrahydro-2H-pyran-2-yl)-1H-indol-3-yl)acetyl)-D-aspartic acid]	–	–	–	–	1.125 ± 0.129 mg/L	147 ± 89	45.8 ± 8.2	19.1 ± 10.7
O=C(O)CC[C@@H](NC(=O)Cc1cn([C@@H]2O[C@H](CO)[C@@H](O)[C@H](O)[C@H]2O)c2ccccc12)C(=O)O [Compound 2, (2-(1-((2R,3R,4S,5S,6R)-3,4,5-trihydroxy-6-(hydroxymethyl)tetrahydro-2H-pyran-2-yl)-1H-indol-3-yl)acetyl)-D-glutamic acid]	–	–	–	–	0.988 ± 0.211 mg/L	98 ± 59	48.5 ± 9.4	17.3 ± 4.6
Cc1ccc2c(c1)c(CC(=O)N[C@H](CC(=O)O)C(=O)O)cn2[C@@H]1O[C@H](CO)[C@@H](O)[C@H](O)[C@H]1O [Compound 3, (2-(5-methyl-1-((2R,3R,4S,5S,6R)-3,4,5-trihydroxy-6-(hydroxymethyl)tetrahydro-2H-pyran-2-yl)-1H-indol-3-yl)acetyl)-D-aspartic acid]	–	–	–	–	0.971 ± 0.114 mg/L	128 ± 65	38.1 ± 5.3	20.7 ± 5.2
COc1ccc2c(c1)c(CC(=O)N[C@H](CC(=O)O)C(=O)O)cn2[C@@H]1O[C@H](CO)[C@@H](O)[C@H](O)[C@H]1O [Compound 4]	–	–	–	–	1.072 ± 0.221 mg/L	120 ± 55	40.3 ± 5.5	18.5 ± 4.3
O=C(O)C[C@@H](NC(=O)Cc1cn([C@@H]2O[C@H](CO)[C@@H](O)[C@H](O)[C@H]2O)c2ccc(Cl)cc12)C(=O)O [Compound 5, (2-(5-chloro-1-((2R,3R,4S,5S,6R)-3,4,5-trihydroxy-6-(hydroxymethyl)tetrahydro-2H-pyran-2-yl)-1H-indol-3-yl)acetyl)-D-aspartic acid]	–	–	–	–	0.831 ± 0.107 mg/L	110 ± 32	42.6 ± 11.2	19.6 ± 5.1
O=C(O)C[C@@H](NC(=O)Cc1cn([C@@H]2O[C@H](CO)[C@@H](O)[C@H](O)[C@H]2O)c2ccc(Br)cc12)C(=O)O [Compound 6, (2-(5-bromo-1-((2R,3R,4S,5S,6R)-3,4,5-trihydroxy-6-(hydroxymethyl)tetrahydro-2H-pyran-2-yl)-1H-indol-3-yl)acetyl)-D-aspartic acid]	–	–	–	–	0.888 ± 0.145 mg/L	127 ± 52	40.7 ± 5.2	21.8 ± 7.3
Cc1cccc2c(CC(=O)N[C@H](CC(=O)O)C(=O)O)cn([C@@H]3O[C@H](CO)[C@@H](O)[C@H](O)[C@H]3O)c12 [Compound 7]	–	–	–	–	0.956 ± 0.270 mg/L	130 ± 22	42.1 ± 7.2	18.6 ± 8.5
COc1cccc2c(CC(=O)N[C@H](CC(=O)O)C(=O)O)cn([C@@H]3O[C@H](CO)[C@@H](O)[C@H](O)[C@H]3O)c12 [Compound 8]	–	–	–	–	1.142 ± 0.132 mg/L	110 ± 32	39.6 ± 5.5	19.2 ± 4.7
Cc1ccc2c(c1)c(CC(=O)N[C@H](CCC(=O)O)C(=O)O)cn2[C@@H]1O[C@H](CO)[C@@H](O)[C@H](O)[C@H]1O [Compound 9]	–	–	–	–	1.089 ± 0.139**^1 mg · L^−1	121 ± 47	38.1 ± 4.7	23.8 ± 5.1
O=C(O)CC[C@@H](NC(=O)Cc1cn([C@@H]2O[C@H](CO)[C@@H](O)[C@H](O)[C@H]2O)c2ccc(Cl)cc12)C(=O)O [Compound 10]	–	–	–	–	0.962 ± 0.101 mg/L	139 ± 41	39.4 ± 4.1	19.4 ± 6.3

— patent US11008360B2, “Indoleacetic acid derivative and preparation method and pharmaceutical use thereof” (Institute of Chinese Materia Medica, China Academy of …, priority 2017, dated 2021)
